# Source: patent US8765729B2, “Cancer therapy” (Aeolus Sciences, Inc., priority 2001, dated 2014)
# Entries after “also recorded” stand apart in the source; their conditions may differ. Where two headings read alike, the source gives them in different places.
# Assays:
# [1] = tested on: bleomycin-induced pulmonary fibrosis; assay: Bleomycin-induced pulmonary fibrosis in mice
# Protocol: Noninvasive measurement of airway constriction in mice. The baseline resistance in unrestrained, conscious mice was assessed by whole body barometric plethysmography (Buxco Electronics, Troy, N.Y.). The techniques used were similar to those described by Zhu et al, J. Clin. Invest. 103(6):779-88 (1999)). Mice were placed in whole body plethysmographs with fast differential transducers interfaced to a computer. Measurements were made of respiratory rates, tidal volumes and enhanced pause (PENH). Airway constriction was expressed as PENH=[(Te/0.3Tr)−1]×[2Pef/3Pif], where Te=expiratory time (seconds), Tr=relaxation time (seconds), Pef=peak expiratory flow ([…]), and Pif=peak inspiratory flow (ml/second). Animals were allowed to equilibrate in the chambers for 15 minutes and then PENH was calculated over a 5-minute period.
# Hydroxyproline measurement. The lungs were dried at 80° C. until a constant weight is obtained. The dried lungs were hydrolyzed under vacuum in a glass vial in 1 ml of 12 N HCl at 120° C. overnight. The samples were lyophilized and assayed for hydroxyproline content using chloramine-T as previously described (Woessner, Arch. Biochem. Biophys. 93:440-447 (1961)). Histopathology. The lungs were fixed in 4% paraformaldehyde for 24 hours and then processed for paraffin embedding. Sections of lung were stained with routine hematoxylin and eosin or with a Masson trichrome stain to assess the degree of fibrosis. The extent of lung injury and fibrosis was graded by four pathologists, blinded as to the treatment group, on a scale of one (no injury) to ten (severe injury/fibrosis). The major criteria examined included interstitial thickening, collagen deposition, type 2 cell hyperplasia, and inflammatory cell infiltration. Statistical Analyses. Data was analyzed using a two-way analysis of variance (ANOVA) or a one-way ANOVA if no significant interactions were found with the two-way ANOVA. Significant differences between groups were assessed using a Newman-Keuls multiple comparison test. Data was analyzed using a computer program, Prizm (Graph Pad Software, San Diego, Calif.). Statistical significance was set at p<0.05. Results Toxicity and Pharmacokinetic Assessment of MnTBAP in Mice
# Mice were randomized into 4 groups using a two by two contingency table where two groups received either saline or bleomycin (3.5 U/kg body weight) by intratracheal instillation. Two groups also received either saline or MnTBAP (5 mg/kg body weight) by ip injection twice daily for 14 days.
# Bleomycin given by intratracheal instillation produces a marked airway and alveolar fibrotic response (Evans et al, Am Rev. Respir. Dis. 125(1):89-94 (1982)). Mice were assessed for changes in airway function by measuring a marker, enhanced pause (PENH), of airway narrowing using non-invasive whole body barometric plethysmography. […] Lung fibrosis was also assessed by measuring hydroxyproline content in the lung as an index of collagen accumulation.
# One lung from each mouse was instillation fixed with 4% paraformaldehyde and paraffin embedded for histopathology assessment. Tissue sections were stained with hematoxylin and eosin or with Masson trichrome stain to assess the degree of lung injury/fibrosis.
# [2] = tested on: rat lung epithelial cells, L2; bovine endothelial cells, CPA-47
# Protocol: (§1) Two non-tumor cell lines (rat lung epithelial cells, L2; bovine endothelial cells, CPA-47) and one tumor cell line (human adenocarcinoma lung cells, A549) were examined for cell proliferation in the presence or absence of manganic porphyrins. Cells were plated in 24 well plates at 10,000 cells per well in the presence of cytotoxic agent (0-10 mM paraquat) for 24-48 hours plus increasing concentrations of MnTBAP, MnMm-4-PyP and their zinc analogs.
# [3] = tested on: tumor cells (A549)
# Protocol: as §1
# [4] = tested on: mice; conditions: 48 hours; for deaths: 4 mice
# Protocol: Animals and treatments. Balb/c male mice that were 6-8 weeks of age were utilized in these studies (Taconic, Germantown, N.Y.). Mice were acclimated to 22° C. in an environmentally controlled room (12-hr light cycles) at least 6 days prior to treatment. Toxicity studies were employed using a moving average method previously described by Weil (Weil, Biometrics 8:249-263 (1952)). Groups of 4 mice were given MnTBAP (50, 88, 153 and 268 mg/kg, ip) and observed over a 48 hour time period.
# MnTBAP toxicity was assessed using a moving average method that consisted of four geometric dose groups (50, 88, 153 and 268 mg/kg, ip) of 4 mice each over 48 hours.
# [5] = tested on: L2, CPA-47 and A549 cells; assay: Cytotoxicity measured by LDH release; conditions: 100 μM, 48 hours
# [6] = Pharmacokinetic profile of MnTBAP in mice (serum and lung); conditions: 10 mg/kg ip; for Peak Level (Co): two-compartment fit
compound,measurement,setting,value
"O=C(O)c1ccc(-c2c3nc(c(-c4ccc(C(=O)O)cc4)c4ccc([n-]4)c(-c4ccc(C(=O)O)cc4)c4nc(c(-c5ccc(C(=O)O)cc5)c5ccc2[n-]5)C=C4)C=C3)cc1.[Mn+3] [MnTBAP, manganese (III) tetrakis (4-benzoic acid) porphyrin]",decrease in airway constriction (PENH) produced by bleomycin,"[1]; 5 mg/kg ip twice daily, 14 days",30%
same,bleomycin-induced weight loss,"[1]; FIG. 8, after 5 days to end of study",attenuates bleomycin-induced weight loss
same,bleomycin-induced airway constriction and collagen accumulation,"[1]; FIG. 9, PENH and hydroxyproline, 14 days",attenuates bleomycin-induced airway constriction and collagen accumulation
same,bleomycin-induced lung injury by histopathology,"[1]; FIGS. 10, 11",attenuates bleomycin-induced pulmonary injury; also recorded: attenuates bleomycin-induced lung injury
same,PENH marker,[1]; MnTBAP alone,did not affect the PENH marker
same,hydroxyproline content of the lung,[1]; MnTBAP alone,little effect
same,lung histology,[1]; MnTBAP alone,no effect on lung histology
same,pathology score,[1]; MnTBAP alone,no effect on the pathology score
same,weight loss compared to saline control,"[1]; MnTBAP alone 5 mg/kg ip twice daily, 14 days",did not cause weight loss
same,maximum average loss of initial body weight,"[1]; bleomycin 3.5 U/kg it plus MnTBAP 5 mg/kg ip twice daily, 14 days, bleomycin alone 20%",10%
same,collagen accumulation by trichrome staining,[1]; bleomycin plus MnTBAP,decreased the collagen accumulation
same,attenuation of bleomycin pathology score,"[1]; fibrosis score scale 0-8, 14 days",28%
same,interstitial thickening and inflammatory responses produced by bleomycin,"[1]; histopathology, hematoxylin and eosin",attenuated the marked interstitial thickening and inflammatory responses
same,decrease in hydroxyproline content caused by bleomycin,"[1]; lung, 5 mg/kg ip twice daily, 14 days",23%
same,attenuation of bleomycin-induced increases in the various indices,"[1]; physiologic, biochemical and pathology indices",roughly 30%
same,cytotoxic effects of paraquat in non-tumor cells,[2],protected non-tumor cells against the cytotoxic effects of paraquat
same,paraquat-mediated cytotoxicity in tumor cells,[3],potentiated paraquat-mediated cytotoxicity
same,relative efficiency of potentiation of paraquat cytotoxicity,[3]; A549,more efficient than MnTM-4-PyP
same,deaths,[4]; 50 mg/kg ip,no deaths
same,deaths,[4]; 88 mg/kg ip,1
same,LD50,"[4]; ip, 95% confidence interval 98-104 mg/kg",100 mg/kg
same,cytotoxicity (LDH release),[5],None of the compounds produced cytotoxicity
same,accumulation in the lung,[6],does not accumulate in the lung
same,Distribution half-life (T1/2),[6]; lung,0.233 h
same,Elimination half-life (T1/2),[6]; lung,9.5 h
same,Peak Level (Co),[6]; lung,80 μg/g protein
same,Distribution half-life (T1/2),[6]; serum,0.45 h
same,Elimination half-life (T1/2),[6]; serum,9.5 h
same,Peak Level (Co),[6]; serum,42 mg/L
